From patent publication US10875875B2, “Propionic acid derivatives and methods of use thereof” (Aviara Pharmaceuticals, Inc., priority 2017, dated 2020)

Biological target: α4β1 (Homo sapiens, UniProt P05556+P13612)
Assay: α4β1 integrin inhibition, IC50
Format: binding
Settings: read-out: α4β1 IC50

α4β1, sequence (P13612 34-1032): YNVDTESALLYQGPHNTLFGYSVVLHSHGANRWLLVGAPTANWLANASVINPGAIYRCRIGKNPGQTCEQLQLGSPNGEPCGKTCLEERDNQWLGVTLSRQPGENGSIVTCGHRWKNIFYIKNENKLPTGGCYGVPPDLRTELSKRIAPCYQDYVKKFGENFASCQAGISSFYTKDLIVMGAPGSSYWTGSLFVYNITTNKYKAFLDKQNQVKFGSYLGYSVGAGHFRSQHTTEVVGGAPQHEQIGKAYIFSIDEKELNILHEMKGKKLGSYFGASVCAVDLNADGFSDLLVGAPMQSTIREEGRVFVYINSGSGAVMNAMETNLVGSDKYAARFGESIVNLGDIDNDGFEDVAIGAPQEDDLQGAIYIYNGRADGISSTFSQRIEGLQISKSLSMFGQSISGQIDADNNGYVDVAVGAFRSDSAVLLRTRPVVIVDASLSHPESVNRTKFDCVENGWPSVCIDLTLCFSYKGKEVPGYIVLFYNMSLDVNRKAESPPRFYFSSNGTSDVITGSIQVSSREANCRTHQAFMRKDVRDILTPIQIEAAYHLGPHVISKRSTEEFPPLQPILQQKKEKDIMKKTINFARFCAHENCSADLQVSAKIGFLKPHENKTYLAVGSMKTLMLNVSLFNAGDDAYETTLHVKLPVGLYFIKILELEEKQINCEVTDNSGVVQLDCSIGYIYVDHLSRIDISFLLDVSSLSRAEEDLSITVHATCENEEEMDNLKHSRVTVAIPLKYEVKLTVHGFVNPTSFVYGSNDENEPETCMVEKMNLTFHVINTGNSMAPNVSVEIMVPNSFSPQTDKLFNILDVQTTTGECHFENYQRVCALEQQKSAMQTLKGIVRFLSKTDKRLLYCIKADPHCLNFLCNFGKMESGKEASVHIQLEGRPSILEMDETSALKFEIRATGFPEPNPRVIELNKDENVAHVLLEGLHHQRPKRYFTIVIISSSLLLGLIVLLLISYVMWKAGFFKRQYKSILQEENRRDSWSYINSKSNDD
α4β1, sequence (P05556 21-798): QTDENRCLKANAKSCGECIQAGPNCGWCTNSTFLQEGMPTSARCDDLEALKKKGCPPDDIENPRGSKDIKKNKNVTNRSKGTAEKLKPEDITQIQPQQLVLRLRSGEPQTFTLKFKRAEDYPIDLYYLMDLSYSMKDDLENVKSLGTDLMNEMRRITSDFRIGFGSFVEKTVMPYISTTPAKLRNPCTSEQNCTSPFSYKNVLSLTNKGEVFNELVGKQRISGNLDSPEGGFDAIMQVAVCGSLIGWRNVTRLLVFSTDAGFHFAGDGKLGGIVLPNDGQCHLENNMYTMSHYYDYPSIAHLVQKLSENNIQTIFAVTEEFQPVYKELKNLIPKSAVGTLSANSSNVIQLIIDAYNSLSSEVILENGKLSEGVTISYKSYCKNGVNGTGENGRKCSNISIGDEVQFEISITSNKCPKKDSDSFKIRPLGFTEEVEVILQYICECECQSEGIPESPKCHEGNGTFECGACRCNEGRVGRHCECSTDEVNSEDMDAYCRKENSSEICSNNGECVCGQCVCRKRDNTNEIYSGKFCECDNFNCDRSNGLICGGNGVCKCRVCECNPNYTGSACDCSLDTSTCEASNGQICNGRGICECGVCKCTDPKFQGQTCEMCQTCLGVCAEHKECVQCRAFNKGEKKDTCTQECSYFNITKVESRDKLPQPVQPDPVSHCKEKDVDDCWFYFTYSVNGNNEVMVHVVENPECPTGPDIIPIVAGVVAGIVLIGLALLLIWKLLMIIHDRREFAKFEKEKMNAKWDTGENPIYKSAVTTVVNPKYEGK

IC50, < 200 nM:
Cn1c(=O)c(NC(=O)N[C@@H](CC(=O)O)c2cccc(-c3ccc(F)cc3F)c2)c(O)c2cccnc21 [1-526, sodium (S)-3-(2′,4′-difluorobiphenyl-3-yl)-3-(3-(1-methyl-4-oxido-2-oxo-1,2-dihydro-1,8-naphthyridin-3-yl)ureido)propanoate]

IC50, < 20 nM:
Cn1ccc(O)c(NC(=O)N[C@@H](CC(=O)O)c2cccc(-c3cccc(OC(F)(F)F)c3)c2)c1=O [1-514, sodium (S)-3-(3-(1-methyl-4-oxido-2-oxo-1,2-dihydropyridin-3-yl)ureido)-3-(3′-(trifluoromethoxy)biphenyl-3-yl)propanoate]
Cn1c(=O)c(NC(=O)N[C@@H](CC(=O)O)c2cccc(-c3ccc(F)cc3F)c2)c(O)c2sccc21 [1-515, sodium (S)-3-(2′,4′-difluorobiphenyl-3-yl)-3-(3-(4-methyl-7-oxido-5-oxo-4,5-dihydrothieno[3,2-b]pyridin-6-yl)ureido)propanoate]
Cn1ccc(O)c(NC(=O)N[C@@H](CC(=O)O)c2cccc(-c3ccc4c(c3)OCO4)c2)c1=O [1-516, sodium (S)-3-(3-(benzo[d][1,3]dioxol-5-yl)phenyl)-3-(3-(1-methyl-4-oxido-2-oxo-1,2-dihydropyridin-3-yl)ureido)propanoate]
Cc1cn(C)c(=O)c(NC(=O)N[C@@H](CC(=O)O)c2cccc(-c3ccc4c(c3)OCO4)c2)c1O [1-517, sodium (S)-3-(3-(benzo[d][1,3]dioxol-5-yl)phenyl)-3-(3-(1,5-dimethyl-4-oxido-2-oxo-1,2-dihydropyridin-3-yl)ureido)propanoate]
Cn1ccc(O)c(NC(=O)N[C@@H](CC(=O)O)c2cccc(-n3ncc4ccccc43)c2)c1=O [1-518, sodium (S)-3-(3-(1H-indazol-1-yl)phenyl)-3-(3-(1-methyl-4-oxido-2-oxo-1,2-dihydropyridin-3-yl)ureido)propanoate]
COc1ccc([C@H](CC(=O)O)NC(=O)Nc2c(O)ccn(C)c2=O)cc1-c1ccc(F)cc1F [1-519, sodium (S)-3-(2′,4′-difluoro-6-methoxybiphenyl-3-yl)-3-(3-(1-methyl-4-oxido-2-oxo-1,2-dihydropyridin-3-yl)ureido)propanoate]
CCn1ccc2ccc(-c3cccc([C@H](CC(=O)O)NC(=O)Nc4c(O)ccn(C)c4=O)c3)cc21 [1-521, sodium (S)-3-(3-(1-ethyl-1H-indol-6-yl)phenyl)-3-(3-(1-methyl-4-oxido-2-oxo-1,2-dihydropyridin-3-yl)ureido)propanoate]
Cn1ccc(O)c(NC(=O)N[C@@H](CC(=O)O)c2cccc(-n3cccn3)c2)c1=O [1-522, sodium (S)-3-(3-(1H-pyrazol-1-yl)phenyl)-3-(3-(1-methyl-4-oxido-2-oxo-1,2-dihydropyridin-3-yl)ureido)propanoate]
Cn1ccc(O)c(NC(=O)N[C@@H](CC(=O)O)c2cc(-c3ccc(F)cc3F)cs2)c1=O [1-523, sodium (S)-3-(4-(2,4-difluorophenyl)thiophen-2-yl)-3-(3-(1-methyl-4-oxido-2-oxo-1,2-dihydropyridin-3-yl)ureido)propanoate]
COc1cccc(-c2cc([C@H](CC(=O)O)NC(=O)Nc3c(O)ccn(C)c3=O)ccc2OC)c1 [1-524, sodium (S)-3-(3′,6-dimethoxybiphenyl-3-yl)-3-(3-(1-methyl-4-oxido-2-oxo-1,2-dihydropyridin-3-yl)ureido)propanoate]
COc1cccc(-c2csc([C@H](CC(=O)O)NC(=O)Nc3c(O)ccn(C)c3=O)c2)c1 [1-528, sodium (S)-3-(4-(3-methoxyphenyl)thiophen-2-yl)-3-(3-(1-methyl-4-oxido-2-oxo-1,2-dihydropyridin-3-yl)ureido)propanoate]
COc1ccc([C@H](CC(=O)O)NC(=O)Nc2c(O)ccn(C)c2=O)cc1-c1ccccc1 [1-529, sodium (S)-3-(6-methoxybiphenyl-3-yl)-3-(3-(1-methyl-4-oxido-2-oxo-1,2-dihydropyridin-3-yl)ureido)propanoate]
Cn1ccc(O)c(NC(=O)N[C@@H](CC(=O)O)c2cc(-c3cccc(Cl)c3)cs2)c1=O [1-530, sodium (S)-3-(4-(3-chlorophenyl)thiophen-2-yl)-3-(3-(1-methyl-4-oxido-2-oxo-1,2-dihydropyridin-3-yl)ureido)propanoate]
CCn1ccc(O)c(NC(=O)N[C@@H](CC(=O)O)c2cccc(-c3ccc(F)cc3F)c2)c1=O [1-531, sodium (S)-3-(2′,4′-difluorobiphenyl-3-yl)-3-(3-(1-ethyl-4-oxido-2-oxo-1,2-dihydropyridin-3-yl)ureido)propanoate]
Cn1ccc(O)c(NC(=O)N[C@@H](CC(=O)O)c2cccc(-c3cccs3)c2)c1=O [1-532, sodium (S)-3-(3-(1-methyl-4-oxido-2-oxo-1,2-dihydropyridin-3-yl)ureido)-3-(3-(thiophen-2-yl)phenyl)propanoate]
COc1ccc([C@H](CC(=O)O)NC(=O)Nc2c(O)ccn(C)c2=O)cc1-c1cccc(Cl)c1 [1-534, sodium (S)-3-(3′-chloro-6-methoxybiphenyl-3-yl)-3-(3-(1-methyl-4-oxido-2-oxo-1,2-dihydropyridin-3-yl)ureido)propanoate]
COc1ccc([C@H](CC(=O)O)NC(=O)Nc2c(O)ccn(C)c2=O)cc1-c1cccc(OC(F)(F)F)c1 [1-535, sodium (S)-3-(6-methoxy-3′-(trifluoromethoxy)biphenyl-3-yl)-3-(3-(1-methyl-4-oxido-2-oxo-1,2-dihydropyridin-3-yl)ureido)propanoate]
COc1ccc([C@H](CC(=O)O)NC(=O)Nc2c(O)ccn(C)c2=O)cc1-c1ccc(OC(F)(F)F)cc1 [1-536, sodium (S)-3-(6-methoxy-4′-(trifluoromethoxy)biphenyl-3-yl)-3-(3-(1-methyl-4-oxido-2-oxo-1,2-dihydropyridin-3-yl)ureido)propanoate]
Cn1ccc(O)c(NC(=O)N[C@@H](CC(=O)O)c2cccc(-c3ccc(Cl)s3)c2)c1=O [1-538, sodium (S)-3-(3-(5-chlorothiophen-2-yl)phenyl)-3-(3-(1-methyl-4-oxido-2-oxo-1,2-dihydropyridin-3-yl)ureido)propanoate]
Cn1ccc(O)c(NC(=O)N[C@@H](CC(=O)O)c2cccc(-n3ccnc3)c2)c1=O [1-539, sodium (S)-3-(3-(1H-imidazol-1-yl)phenyl)-3-(3-(1-methyl-4-oxido-2-oxo-1,2-dihydropyridin-3-yl)ureido)propanoate]
Cc1cscc1-c1cccc([C@H](CC(=O)O)NC(=O)Nc2c(O)ccn(C)c2=O)c1 [1-540, sodium (S)-3-(3-(1-methyl-4-oxido-2-oxo-1,2-dihydropyridin-3-yl)ureido)-3-(3-(4-methylthiophen-3-yl)phenyl)propanoate]
Cc1ccc([C@H](CC(=O)O)NC(=O)Nc2c(O)ccn(C)c2=O)cc1-c1ccc(F)cc1F [1-541, sodium (S)-3-(2′,4′-difluoro-6-methylbiphenyl-3-yl)-3-(3-(1-methyl-4-oxido-2-oxo-1,2-dihydropyridin-3-yl)ureido)propanoate]
COc1cccc(-c2cc([C@H](CC(=O)O)NC(=O)Nc3c(O)ccn(C)c3=O)ccc2C)c1 [1-542, sodium (S)-3-(3′-methoxy-6-methylbiphenyl-3-yl)-3-(3-(1-methyl-4-oxido-2-oxo-1,2-dihydropyridin-3-yl)ureido)propanoate]
Cn1ccc(O)c(NC(=O)N[C@@H](CC(=O)O)c2cccc(-c3cc[nH]c3)c2)c1=O [1-544, sodium (S)-3-(3-(1H-pyrrol-3-yl)phenyl)-3-(3-(1-methyl-4-oxido-2-oxo-1,2-dihydropyridin-3-yl)ureido)propanoate]
Cc1ccc([C@H](CC(=O)O)NC(=O)Nc2c(O)ccn(C)c2=O)cc1-c1c(C)cccc1C [1-545, sodium (S)-3-(3-(1-methyl-4-oxido-2-oxo-1,2-dihydropyridin-3-yl)ureido)-3-(2′,6,6′-trimethylbiphenyl-3-yl)propanoate]
Cn1ccc(O)c(NC(=O)N[C@@H](CC(=O)O)c2ccc(F)c(-c3c(F)cccc3F)c2)c1=O [1-546, sodium (S)-3-(3-(1-methyl-4-oxido-2-oxo-1,2-dihydropyridin-3-yl)ureido)-3-(2′,6,6′-trifluorobiphenyl-3-yl)propanoate]
COc1cccc(-c2cc([C@H](CC(=O)O)NC(=O)Nc3c(O)ccn(C)c3=O)ccc2F)c1 [1-547, sodium (S)-3-(6-fluoro-3′-methoxybiphenyl-3-yl)-3-(3-(1-methyl-4-oxido-2-oxo-1,2-dihydropyridin-3-yl)ureido)propanoate]
Cn1cc(-c2cccc([C@H](CC(=O)O)NC(=O)Nc3c(O)ccn(C)c3=O)c2)cn1 [1-548, sodium (S)-3-(3-(1-methyl-1H-pyrazol-4-yl)phenyl)-3-(3-(1-methyl-4-oxido-2-oxo-1,2-dihydropyridin-3-yl)ureido)propanoate]
Cn1ncc(O)c(NC(=O)N[C@@H](CC(=O)O)c2cccc(-c3ccc(F)cc3F)c2)c1=O [1-549, sodium (S)-3-(2′,4′-difluorobiphenyl-3-yl)-3-(3-(2-methyl-5-oxido-3-oxo-2,3-dihydropyridazin-4-yl)ureido)propanoate]
COc1cccc(-c2cc([C@H](CC(=O)O)NC(=O)Nc3c(O)cc(C)n(C)c3=O)ccc2OC)c1 [1-551, sodium (S)-3-(3′,6-dimethoxybiphenyl-3-yl)-3-(3-(1,6-dimethyl-4-oxido-2-oxo-1,2-dihydropyridin-3-yl)ureido)propanoate]
Cc1cc(O)c(NC(=O)N[C@@H](CC(=O)O)c2cc(-c3ccc(F)cc3F)cs2)c(=O)n1C [1-552, sodium (S)-3-(4-(2,4-difluorophenyl)thiophen-2-yl)-3-(3-(1,6-dimethyl-4-oxido-2-oxo-1,2-dihydropyridin-3-yl)ureido)propanoate]
COc1cccc(-c2cccc([C@H](CC(=O)O)NC(=O)Nc3c(O)cc(C)n(C)c3=O)c2)c1 [1-553, sodium (S)-3-(3-(1,6-dimethyl-4-oxido-2-oxo-1,2-dihydropyridin-3-yl)ureido)-3-(3′-methoxybiphenyl-3-yl)propanoate]
